How the values were obtained:
VGSC β3 subunit = experiment: Western blotting of VGSC β3 subunit in HepG2 cells after AGAP; type: cell-based, human; conditions: HepG2, 40 μM, 48 h incubation, control proteins
Procedure: (§1) Analgesic antitumoral peptide (AGAP) at […] different concentrations (0, 5, 10, 15, 20, 25, 30, 35 and 40 μM) were incubated with hepatoma cell lines HepG2 (96 well plates, 10^4 cells/well, 24 h later, AGAP was administered at different concentrations as described above, at least 3 wells were repeated for each concentration) for 48 h, the amount of the VGSC β3 subunit expressed was then detected by Western blotting using the antibody in I.10. The cell proliferation level was measured using the MTT method.

[1] = tested on: hepatoma cell lines HepG2; experiment: MTT assay of HepG2 cell proliferation after AGAP; type: cell-based; conditions: HepG2, 40 μM, 48 h incubation, control proteins
Procedure: The cell proliferation was measured by MTT assay:took the cells in good growth condition and in logarithmic growth phase, digested with conventional trypsin, and pipetted into a single cell suspension, after counting the blood cell with blood counting chamber, the concentration was adjusted to 10^5 cells/ml (HepG2 cells), then were inoculated into 96-well plates at 100 μl per well, while set the blank hole (only added 100 μl of culture medium, without cells); cultured in 5% CO2 incubator at 37° C. for 24 h, each well was added 0.5 mg/ml MTT, 100 μl, then continued to culture for 4 h, the supernatant was discarded and 150 μl of DMSO was added to each well. The mixture was incubated at low speed for 10 min on a micro shaker, and the absorbance of each well was measured at 490 nm using a microplate reader after the crystals were fully dissolved.
as §1

Row | Substance | effect on the expression of the VGSC β3 subunit (VGSC β3 subunit) | effect on cell proliferation [1]
1 | bovine serum albumin | no effect | nor did it affect cell proliferation
2 | cytochrome C | no effect | nor did it affect cell proliferation

Reference: US11155820B2, “Target of VGSC β3 protein for prevention, treatment and diagnostic detection of cancers” (SHENYANG PHARMACEUTICAL UNIVERSITY, priority 2014, dated 2021)
